{"source": "EPA's ToxValDB 9.5 (doi:10.2903/j.efsa.2008.145r)", "key": {"[1]": {"test_system": "Apis mellifera", "conditions": "acute; duration: 48 hours; oral; unspecified; mortality"}, "[2]": {"test_system": "Daphnia magna", "conditions": "chronic/long-term; duration: 21 days; reproduction"}, "[3]": {"test_system": "Bibionidae", "conditions": "chronic/long-term; duration: 28 days"}, "[4]": {"test_system": "Oncorhynchus mykiss"}, "[5]": {"test_system": "Rattus norvegicus"}, "[6]": {"test_system": "Coturnix japonica", "conditions": "acute, oral, mortality"}, "[7]": {"test_system": "Tagia sp.", "conditions": "acute; duration: 14 days; mortality"}, "[8]": {"test_system": "Colinus virginianus"}}}
{"smiles": "Cc1cccc(C)c1N(Cn1cccn1)C(=O)CCl", "note": "[Metazachlor]", "values": [{"measurement": "LD50", "setting": "[1]", "result": "> 72.2", "unit": "µg/piece"}, {"measurement": "NOEC", "setting": "[2]", "result": 0.1, "unit": "mg/L"}, {"measurement": "NOEC", "setting": "[3]", "result": 7.93, "unit": "mg/kg"}, {"measurement": "LC50", "setting": "[4]; acute, duration: 96 hours, mortality", "result": 8.5, "unit": "µg/mL"}, {"measurement": "NOEC", "setting": "[4]; chronic/long-term, duration: 28 days, growth", "result": 2.15, "unit": "mg/L"}, {"measurement": "LD50", "setting": "[5]; acute, mortality", "result": "> 2000", "unit": "mg/kg"}, {"measurement": "NOAEL", "setting": "[5]; chronic", "result": 79, "unit": "mg/kg-day"}, {"measurement": "NOAEL", "setting": "[5]; chronic, duration: 2 years, organ weight", "result": 8.5, "unit": "mg/kg-day"}, {"measurement": "NOAEL", "setting": "[5]; developmental, development", "result": 50, "unit": "mg/kg-day"}, {"measurement": "NOAEL", "setting": "[5]; subchronic, duration: 90 days, oral, organ weight", "result": 21, "unit": "mg/kg-day"}, {"measurement": "LD50", "setting": "[6]; diet", "result": "> 449", "unit": "mg/kg-day"}, {"measurement": "LD50", "setting": "[6]", "result": "> 2000", "unit": "mg/kg"}, {"measurement": "LC50", "setting": "[7]", "result": "> 1000", "unit": "mg/kg"}, {"measurement": "LD50", "setting": "[8]; acute, oral, mortality", "result": "> 2000", "unit": "mg/kg"}, {"measurement": "NOEL", "setting": "[8]; reproduction developmental", "result": 76.5, "unit": "mg/kg-day"}]}
